From patent US11964990B2, “1,3,4,7-tetrahydro-2H-pyrrolo[3′,2′:5,6]pyrido[2,3-b][1,4]oxazepine bcl-2 inhibitors” (AbbVie Inc., priority 2022, dated 2024)

Tests used:
RS4;11 cells = experiment: Cell viability assay (CellTiter-Glo) in RS4;11 cell line; type: cell-based; details: 24 hours, 10% Human Serum, 50% decrease in cell viability
Source text: (§1) The acute lymphoblastic leukemia (ALL) human cell line RS4;11 (ATCC, Manassas VA) was used as the primary human cell line to assess the cellular activity of compound of the present Examples in vitro and their efficacy in vivo. BH3 profiling, a mitochondrial assay that classifies blocks in the intrinsic apoptotic pathway, has shown that RS4;11 cells were highly dependent on Bcl-2 protein for survival and were sensitive to a Bcl-2 inhibitor (Blood. 2008; 111(4):2300-2309). […] The acute lymphoblastic leukemia cell line Molt-4, which is derived from immature T-lymphoid cells (T-ALL), was used as a counter screen assay.
(§2) Frozen RS4;11 or Molt-4 cells (ATCC, Manassas, VA, USA) were thawed overnight in RPMI 1640 media (Thermo Fisher Scientific, Waltham, MA, USA) supplemented with 1% penicillin/streptomycin (Thermo Fisher Scientific, Waltham, MA, USA), and 10% Human Serum (Sigma, St. Louis, MO, USA). 3000 Cells (0.1×10^6/mL) were seeded in each well of 384-well plate and were treated for 24 hours in a humidified chamber with 5% CO2. Cell viability was determined by CellTiter-Glo as described by the manufacturer's instructions (Promega Corporation, Madison, WI, USA). Responses were determined as a percentage of the control treated cells and the effective concentration (EC50) to induce a 50% decrease in cell viability were determined from sigmoidal dose-response curves using Dotmatics (Dotmatics Software Company, Bishops Stortford, Hertfordshire, England).

Molt-4 cells = experiment: Cell viability counter screen assay (CellTiter-Glo) in Molt-4 cells; type: cell-based; details: 24 hours, 10% Human Serum, 50% decrease in cell viability
Source text: as §1, §2

EC50 (RS4;11 cells) [nM] | Structure (SMILES) | EC50 (Molt-4 cells) [nM]
0.862 | CC1(C)CC(c2ccc(Cl)cc2)=C2CN3CCN(c4ccc(C(=O)NS(=O)(=O)c5ccc(NC[C@H]6CC[C@H](N7CCOCC7)CC6)c([N+](=O)[O-])c5)c(N5CCCOc6nc7[nH]ccc7cc65)c4)C[C@H]3COCCCO[C@@H]2C1 [Example 28, 4-((4aS,10aR)-14-(4-chlorophenyl)-12,12-dimethyl-1,2,4a,5,8,9,10a,11,13,15-decahydro-7H,12H-benzo[f]pyrazino[2,1-c][1,8]dioxa[4]azacycloundecin-3(4H)-yl)-2-(3,4-dihydro-2H-pyrrolo[3′,2′:5,6]pyrido[2,3-h][1,4]oxazepin-1(7H)-yl)-N-((4-((((1r,4r)-4-morpholinocyclohexyl)methyl)amino)-3-nitrophenyl)sulfonyl)benzamide] | 274
7.11 | CO[C@H]1CC[C@H](CNc2ccc(S(=O)(=O)NC(=O)c3ccc(N4CCN5CC6=C(c7ccc(Cl)cc7)CC(C)(C)C[C@H]6OCCCOC[C@@H]5C4)cc3N3CCCOc4nc5[nH]ccc5cc43)cc2[N+](=O)[O-])CC1 [Example 5, 4-((4aS,10aR)-14-(4-chlorophenyl)-12,12-dimethyl-1,2,4a,5,8,9,10a,11,13,15-decahydro-7H,12H-benzo[f]pyrazino[2,1-c][1,8]dioxa[4]azacycloundecin-3(4H)-yl)-2-(3,4-dihydro-2H-pyrrolo[3′,2′:5,6]pyrido[2,3-b][1,4]oxazepin-1(7H)-yl)-N-((4-((((1r,4r)-4-methoxycyclohexyl)methyl)amino)-3-nitrophenyl)sulfonyl)benzamide] | 4460
4.1 | CO[C@H]1C[C@H](Nc2ccc(S(=O)(=O)NC(=O)c3ccc(N4CCN5CC6=C(c7ccc(Cl)cc7)CC(C)(C)C[C@H]6OCCCOC[C@@H]5C4)cc3N3CCCOc4nc5[nH]ccc5cc43)cc2[N+](=O)[O-])C1 [Example 30, 4-((4aS,10aR)-14-(4-chlorophenyl)-12,12-dimethyl-1,2,4a,5,8,9,10a,11,13,15-decahydro-7H,12H-benzo[f]pyrazino[2,1-c][1,8]dioxa[4]azacycloundecin-3(4H)-yl)-2-(3,4-dihydro-2H-pyrrolo[3′,2′:5,6]pyrido[2,3-b][1,4]oxazepin-1(7H)-yl)-N-((4-(((1r,3r)-3-methoxycyclobutyl)amino)-3-nitrophenyl)sulfonyl)benzamide] | > 10000
1.43 | CC1(C)CC(c2ccc(Cl)cc2)=C2CN3CCN(c4ccc(C(=O)NS(=O)(=O)c5ccc(NCC6(O)CCOCC6)c([N+](=O)[O-])c5)c(N5CCCOc6nc7[nH]ccc7cc65)c4)C[C@H]3COCCCO[C@@H]2C1 [Example 18, 4-((4aS,10aR)-14-(4-chlorophenyl)-12,12-dimethyl-1,2,4a,5,8,9,10a,11,13,15-decahydro-7H,12H-benzo[f]pyrazino[2,1-c][1,8]dioxa[4]azacycloundecin-3(4H)-yl)-2-(3,4-dihydro-2H-pyrrolo[3′,2′:5,6]pyrido[2,3-b][1,4]oxazepin-1(7H)-yl)-N-((4-(((4-hydroxytetrahydro-2H-pyran-4-yl)methyl)amino)-3-nitrophenyl)sulfonyl)benzamide] | 426
1.47 | COCCO[C@H]1CC[C@H](CNc2ccc(S(=O)(=O)NC(=O)c3ccc(N4CCN5CC6=C(c7ccc(Cl)cc7)CC(C)(C)C[C@H]6OCCCOC[C@@H]5C4)cc3N3CCCOc4nc5[nH]ccc5cc43)cc2[N+](=O)[O-])OC1 [Example 35, 4-((4aS,10aR)-14-(4-chlorophenyl)-12,12-dimethyl-1,2,4a,5,8,9,10a,11,13,15-decahydro-7H,12H-benzo[f]pyrazino[2,1-c][1,8]dioxa[4]azacycloundecin-3(4H)-yl)-2-(3,4-dihydro-2H-pyrrolo[3′,2′:5,6]pyrido[2,3-b][1,4]oxazepin-1(7H)-yl)-N-((4-((((2R,5S)-5-(2-methoxyethoxy)tetrahydro-2H-pyran-2-yl)methyl)amino)-3-nitrophenyl)sulfonyl)benzamide] | 1740

More lines, now with the values behind:

Structure (SMILES) | EC50 (RS4;11 cells) [nM] | EC50 (Molt-4 cells) [nM]
CO[C@H]1CC[C@H](CNc2ccc(S(=O)(=O)NC(=O)c3ccc(N4CCN5CC6=C(c7ccc(Cl)cc7)CC(C)(C)C[C@H]6OCCCOC[C@@H]5C4)cc3N3CCCOc4nc5[nH]ccc5cc43)cc2Cl)OC1 [Example 34, N-((3-chloro-4-((((2R,5S)-5-methoxytetrahydro-2H-pyran-2-yl)methyl)amino)phenyl)sulfonyl)-4-((4aS,10aR)-14-(4-chlorophenyl)-12,12-dimethyl-1,2,4a,5,8,9,10a,11,13,15-decahydro-7H,12H-benzo[f]pyrazino[2,1-c][1,8]dioxa[4]azacycloundecin-3(4H)-yl)-2-(3,4-dihydro-2H-pyrrolo[3′,2′:5,6]pyrido[2,3-b][1,4]oxazepin-1(7H)-yl)benzamide] | 57.6 | > 10000
CO[C@H]1CC[C@H](COc2ccc(S(=O)(=O)NC(=O)c3ccc(N4CCN5CC6=C(c7ccc(Cl)cc7)CC(C)(C)C[C@H]6OCCCOC[C@@H]5C4)cc3N3CCCOc4nc5[nH]ccc5cc43)cc2[N+](=O)[O-])OC1 [Example 33, 4-((4aS,10aR)-14-(4-chlorophenyl)-12,12-dimethyl-1,2,4a,5,8,9,10a,11,13,15-decahydro-7H,12H-benzo[f]pyrazino[2,1-c][1,8]dioxa[4]azacycloundecin-3(4H)-yl)-2-(3,4-dihydro-2H-pyrrolo[3′,2′:5,6]pyrido[2,3-b][1,4]oxazepin-1(7H)-yl)-N-((4-(((2R,5S)-5-methoxytetrahydro-2H-pyran-2-yl)methoxy)-3-nitrophenyl)sulfonyl)benzamide] | 3.49 | 6080
C[C@@H]1CO[C@@H](CNc2ccc(S(=O)(=O)NC(=O)c3ccc(N4CCN5CC6=C(c7ccc(Cl)cc7)CC(C)(C)C[C@H]6OCCCOC[C@@H]5C4)cc3N3CCCOc4nc5[nH]ccc5cc43)cc2[N+](=O)[O-])CO1 [Example 6, 4-((4aS,10aR)-14-(4-chlorophenyl)-12,12-dimethyl-1,2,4a,5,8,9,10a,11,13,15-decahydro-7H,12H-benzo[f]pyrazino[2,1-c][1,8]dioxa[4]azacycloundecin-3(4H)-yl)-2-(3,4-dihydro-2H-pyrrolo[3′,2′:5,6]pyrido[2,3-b][1,4]oxazepin-1(7H)-yl)-N-((4-((((2S,5R)-5-methyl-1,4-dioxan-2-yl)methyl)amino)-3-nitrophenyl)sulfonyl)benzamide] | 1.55 | 1910
CC1(C)CC(c2ccc(Cl)cc2)=C2CN3CCN(c4ccc(C(=O)NS(=O)(=O)c5ccc(OCC6CCOCC6)c([N+](=O)[O-])c5)c(N5CCCOc6nc7[nH]ccc7cc65)c4)C[C@H]3COCCCO[C@@H]2C1 [Example 46, 4-((4aS,10aR)-14-(4-chlorophenyl)-12,12-dimethyl-1,2,4a,5,8,9,10a,11,13,15-decahydro-7H,12H-benzo[f]pyrazino[2,1-c][1,8]dioxa[4]azacycloundecin-3(4H)-yl)-2-(3,4-dihydro-2H-pyrrolo[3′,2′:5,6]pyrido[2,3-b][1,4]oxazepin-1(7H)-yl)-N-((3-nitro-4-((tetrahydro-2H-pyran-4-yl)methoxy)phenyl)sulfonyl)benzamide] | 9.36 | > 10000
